Data published in patent USRE40259E1, “Alpha-aminoamide derivatives useful as analgesic agents” (Newron Pharmaceuticals, S.p.A., priority 1997, dated 2008).
Marks after values point to notes of the source that are not given here.

Key:
Assay type in all cases: in vivo
Male NMRI CD-1 mice = test: Formalin test (formalin nociception test in mice); settings: for Licking time, Acute phase / Licking time, Chronic phase: 60 min before formalin, mice; for Licking time, Acute phase: acute phase 0-5 min; for Licking time, Chronic phase: chronic phase 30-40 min; for Effect on cumulative licking time in both phases of the formalin test: 7.5-60.0 mg/kg po, result in words
Text: Formalin test is a useful tool for obtaining neurogenic inflammation and continuous pain (Shibata et al, Pain, 38: 347-352, 1989).
Formalin produces a distinct biphasic response. The early phase seems to be caused predominantly by C-fibre activation due to peripheral stimulus, while the late phase appears to be dependent on the combination of an inflammatory reaction in the peripheral tissue and functional changes in the dorsal horn of the spinal cord. This functional changes seem to be initiated by the C-fibre barrage during the early phase (Tjolsen et al. Pain 51, 5-17, 1992). Substance P and bradykinin participate in the early phase, while histamine, serotonin, prostaglandins and bradykinin are involved in the late phase.
Male NMRI CD-1 mice (22-25 g) were injected with […] μl of 2.7% solution of formalin into the right hindpaw and placed immediately into observation chambers. The cumulative licking time of the injected paw was recorded in the acute phase (0-5 min) and in the chronic phase (30-40 min) of the nociceptive response of formalin.
The two representative compounds of the invention (S)-2-[4-(3- fluorobenzyloxy)benzylamino]-propanamide, methanesulfonate (internal code PNU 151774E) and (S)-[2-[4-(3-fluorobenzyloxy)benzylamino]-2-methyl-propanamide […] were administered 60 min before formalin injection at the doses of 7.5, 15.0, 30.0 and 60.0 mg/kg; po. Morphine (5 mg/kg; sc) was used as a positive standard. The activities data were analysed by Dunnett's t-test.

mice [1] = test: Locomotor activity test; settings: for Locomotor activity counts (mean ± sem): 60 min before test, 15 min test, mice; for Effect on locomotor activity: 7.5-60.0 mg/kg po, result in words
Description: (§1) The effects of these compounds on locomotor activity and rotarod (a test for evaluating motor co-ordination) were studied in order to exclude changes in these parameters as confounding factors in the evaluation of the formalin response. The locomotor activity test lasted 15 min. Five minutes after testing locomotor activity, the mice were put on the rotarod for 2 min and the number of mice falling within this time were counted. Compounds PNU 151774E and PNU 156654E were tested at the doses of 7.5, 15.0, 30.0 and 60.0 mg/kg; po. The compounds were administered 60 min before locomotor activity test.

mice [2] = test: Rotarod (motor co-ordination); settings: for Rotarod co-ordination (mice fallen/total mice): 2 min on rotarod; for Effect on rotarod activity: 7.5-60.0 mg/kg po, result in words
Description: as §1

C[C@H](NCc1ccc(OCc2cccc(F)c2)cc1)C(N)=O [PNU 151774E, (S)-2-[4-(3-fluorobenzyloxy)benzylamino]-propanamide, methanesulfonate]
Licking time, Acute phase (Male NMRI CD-1 mice; 7.5 mg/kg po): 137.9 ± 2.4^a sec
Licking time, Chronic phase (Male NMRI CD-1 mice; 7.5 mg/kg po): 72.4 ± 2.4^ sec
Licking time, Acute phase (Male NMRI CD-1 mice; 15.0 mg/kg po): 87.9 ± 3.3^a sec
Licking time, Chronic phase (Male NMRI CD-1 mice; 15.0 mg/kg po): 64.3 ± 2.8^b sec
Licking time, Acute phase (Male NMRI CD-1 mice; 30.0 mg/kg po): 79.4 ± 3.0^a sec
Licking time, Chronic phase (Male NMRI CD-1 mice; 30.0 mg/kg po): 56.9 ± 2.6^a sec
Licking time, Acute phase (Male NMRI CD-1 mice; 60.0 mg/kg po): 63.1 ± 2.6^a sec
Licking time, Chronic phase (Male NMRI CD-1 mice; 60.0 mg/kg po): 38.1 ± 3.6^a sec
Effect on cumulative licking time in both phases of the formalin test (Male NMRI CD-1 mice): dose-dependently reduced cumulative licking time in both phases
Locomotor activity counts (mean ± sem) (mice [1]; 7.5 mg/kg po): 2908 ± 234 counts
Locomotor activity counts (mean ± sem) (mice [1]; 15 mg/kg po): 2795 ± 255 counts
Locomotor activity counts (mean ± sem) (mice [1]; 30 mg/kg po): 2347 ± 203 counts
Locomotor activity counts (mean ± sem) (mice [1]; 60 mg/kg po): 2240 ± 195 counts
Effect on locomotor activity (mice [1]): without any effect
Rotarod co-ordination (mice fallen/total mice) (mice [2]; 7.5 mg/kg po): 0/10
Rotarod co-ordination (mice fallen/total mice) (mice [2]; 15 mg/kg po): 0/10
Rotarod co-ordination (mice fallen/total mice) (mice [2]; 30 mg/kg po): 0/10
Rotarod co-ordination (mice fallen/total mice) (mice [2]; 60 mg/kg po): 0/10
Effect on rotarod activity (mice [2]): without any effect

CC(C)(NCc1ccc(OCc2cccc(F)c2)cc1)C(N)=O [PNU 156654E, 2-[4-(3-fluorobenzyloxy)benzylamino]-2-methyl-propanamide]
Licking time, Acute phase (Male NMRI CD-1 mice; 7.5 mg/kg po): 108.4 ± 4.2^ sec
Licking time, Chronic phase (Male NMRI CD-1 mice; 7.5 mg/kg po): 62.4 ± 3.6^ sec
Licking time, Acute phase (Male NMRI CD-1 mice; 15.0 mg/kg po): 79.7 ± 3.7^a sec
Licking time, Chronic phase (Male NMRI CD-1 mice; 15.0 mg/kg po): 42.1 ± 6.2^a sec
Licking time, Acute phase (Male NMRI CD-1 mice; 30.0 mg/kg po): 60.0 ± 2.3^a sec
Licking time, Chronic phase (Male NMRI CD-1 mice; 30.0 mg/kg po): 37.7 ± 6.9^a sec
Licking time, Acute phase (Male NMRI CD-1 mice; 60.0 mg/kg po): 44.4 ± 4.2^a sec
Licking time, Chronic phase (Male NMRI CD-1 mice; 60.0 mg/kg po): 17.3 ± 6.6^a sec
Effect on cumulative licking time in both phases of the formalin test (Male NMRI CD-1 mice): dose-dependently reduced cumulative licking time in both phases
Locomotor activity counts (mean ± sem) (mice [1]; 7.5 mg/kg po): 1966 ± 188 counts
Locomotor activity counts (mean ± sem) (mice [1]; 15 mg/kg po): 2110 ± 256 counts
Locomotor activity counts (mean ± sem) (mice [1]; 30 mg/kg po): 2272 ± 317 counts
Locomotor activity counts (mean ± sem) (mice [1]; 60 mg/kg po): 2119 ± 310 counts
Effect on locomotor activity (mice [1]): without any effect
Rotarod co-ordination (mice fallen/total mice) (mice [2]; 7.5 mg/kg po): 0/10
Rotarod co-ordination (mice fallen/total mice) (mice [2]; 15 mg/kg po): 0/10
Rotarod co-ordination (mice fallen/total mice) (mice [2]; 30 mg/kg po): 0/10
Rotarod co-ordination (mice fallen/total mice) (mice [2]; 60 mg/kg po): 0/10
Effect on rotarod activity (mice [2]): without any effect
